Data from patent US9833497B2, “Human originated EGF domain proteins and use of the same” (CHENGDU SOURCEBIO LIMITED-LIABILITY COMPANY, priority 2013, dated 2017).

Key:
Assay type in all cases: cell-based
E. coli DH5α = assay: Antibacterial activity: MIC and growth curve against E. coli DH5α in 96-well plate; conditions: minimal inhibitory concentration against E. coli DH5α; 96-well plate, 5×10^5 CFU/mL, 37° C., judged after 8 h
Method in brief: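 Log-phase bacteria (OD600 ~0.5) resuspended in LB at 5×10^5 CFU/mL, exposed to recombinant protein at 50, 25, 12.5 μg/mL final in triplicate, 37 °C shaking at 175 rpm. OD600 read every 30 min; MIC is lowest concentration showing no growth.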

E. coli BL21 = assay: MIC against Gram-negative bacteria: E. coli BL21; conditions: 5×10^5 CFU/mL
Method in brief: (§1)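 Antibacterial activity of purified human EGF domain proteins: two-fold concentration series, triplicate wells, LB broth, 5×10^5 CFU/mL bacteria, 37° C shaking incubation. The lowest concentration without growth defines the MIC.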

Pseudomonas aeruginosa = assay: MIC against Gram-negative bacteria: Pseudomonas aeruginosa; conditions: 5×10^5 CFU/mL
Method in brief: as §1

Klebsiella pneumonia = assay: MIC against Gram-negative bacteria: Klebsiella pneumonia; conditions: 5×10^5 CFU/mL
Method in brief: as §1

Enterobacter cloacae = assay: MIC against Gram-negative bacteria: Enterobacter cloacae; conditions: 5×10^5 CFU/mL
Method in brief: as §1

Aeromonas hydrophila = assay: MIC against Gram-negative bacteria: Aeromonas hydrophila; conditions: 5×10^5 CFU/mL
Method in brief: as §1

Citrobacter diversus = assay: MIC against Gram-negative bacteria: Citrobacter diversus; conditions: 5×10^5 CFU/mL
Method in brief: as §1

Moraxella catarrhalis = assay: MIC against Gram-negative bacteria: Moraxella catarrhalis; conditions: 5×10^5 CFU/mL
Method in brief: as §1

Proteus mirabilis = assay: MIC against Gram-negative bacteria: Proteus mirabilis; conditions: 5×10^5 CFU/mL
Method in brief: as §1

Proteus vulgaris = assay: MIC against Gram-negative bacteria: Proteus vulgaris; conditions: 5×10^5 CFU/mL
Method in brief: as §1

Serratia marcescens = assay: MIC against Gram-negative bacteria: Serratia marcescens; conditions: 5×10^5 CFU/mL
Method in brief: as §1

[1] = E. coli BL21, 96-well plate, 37° C., 10 h
[2] = Pseudomonas aeruginosa, 96-well plate, 37° C., 10 h
[3] = Klebsiella pneumonia, 96-well plate, 37° C., 10 h
[4] = Enterobacter cloacae, 96-well plate, 37° C., 10 h
[5] = Aeromonas hydrophila, 96-well plate, 37° C., 10 h
[6] = Citrobacter diversus, 96-well plate, 37° C., 10 h
[7] = Moraxella catarrhalis, 96-well plate, 37° C., 10 h
[8] = Proteus mirabilis, 96-well plate, 37° C., 10 h
[9] = Proteus vulgaris, 96-well plate, 37° C., 10 h
[10] = Serratia marcescens, 96-well plate, 37° C., 10 h
[11] = 10 h cultivation at 37° C., two-fold serial dilution

PRT129 (CSTYGHLCRNGGRCREKRRGVTCDCAFSAYDGPFC; listed as Homo sapiens)
50 mg/L: MIC (E. coli DH5α)
50 µg/mL: MIC (μg/mL) P. aeruginosa (Pseudomonas aeruginosa; [2]) | MIC (μg/mL) E. cloacae (Enterobacter cloacae; [4])
12.5 µg/mL: MIC (μg/mL) E. coli BL21 (E. coli BL21; [1]) | MIC (μg/mL) K. pneumonia (Klebsiella pneumonia; [3]) | MIC (μg/mL) C. diversus (Citrobacter diversus; [6]) | MIC (μg/mL) P. vulgaris (Proteus vulgaris; [9]) | MIC (μg/mL) S. marcescens (Serratia marcescens; [10])
25 µg/mL: MIC (μg/mL) A. hydrophila (Aeromonas hydrophila; [5]) | MIC (μg/mL) M. catarrhalis (Moraxella catarrhalis; [7]) | MIC (μg/mL) P. mirabilis (Proteus mirabilis; [8])

PRT484 (RCEDLDGVVCGGHGTCSCGRCVCERGWFGKLCQ; listed as Homo sapiens)
50 mg/L: MIC against K. pneumonia (Klebsiella pneumonia; 96-well plate, 37° C., 10 h) | MIC against A. hydrophila (Aeromonas hydrophila; 96-well plate, 37° C., 10 h) | MIC against M. catarrhalis (Moraxella catarrhalis; 96-well plate, 37° C., 10 h) | MIC against P. vulgaris (Proteus vulgaris; 96-well plate, 37° C., 10 h)
25 mg/L: MIC (E. coli DH5α) | MIC against P. aeruginosa (Pseudomonas aeruginosa; 96-well plate, 37° C., 10 h)
12.5 mg/L: MIC against E. coli BL21 (E. coli BL21; 96-well plate, 37° C., 10 h) | MIC against E. cloacae (Enterobacter cloacae; 96-well plate, 37° C., 10 h) | MIC against C. diversus (Citrobacter diversus; 96-well plate, 37° C., 10 h) | MIC against P. mirabilis (Proteus mirabilis; 96-well plate, 37° C., 10 h) | MIC against S. marcescens (Serratia marcescens; 96-well plate, 37° C., 10 h)

PRT36 (PVRDCSKDNGGCSKNFRCISDRKLDSTGCVCPSGLSPMKDSSGCY; listed as Homo sapiens)
12.5 µg/mL: MIC (μg/mL) P. aeruginosa (Pseudomonas aeruginosa; [2]) | MIC (μg/mL) K. pneumonia (Klebsiella pneumonia; [3]) | MIC (μg/mL) P. vulgaris (Proteus vulgaris; [9])
25 µg/mL: MIC (μg/mL) E. coli BL21 (E. coli BL21; [1]) | MIC (μg/mL) E. cloacae (Enterobacter cloacae; [4]) | MIC (μg/mL) A. hydrophila (Aeromonas hydrophila; [5]) | MIC (μg/mL) M. catarrhalis (Moraxella catarrhalis; [7]) | MIC (μg/mL) P. mirabilis (Proteus mirabilis; [8]) | MIC (μg/mL) S. marcescens (Serratia marcescens; [10])
50 µg/mL: MIC (μg/mL) C. diversus (Citrobacter diversus; [6])
12.5 mg/L: MIC (E. coli DH5α)

PRT2 (DQLICVNENGGCEQYCSDHTGTKRSCRCHEGYSLLADGVSCT; listed as Homo sapiens)
25 mg/L: MIC (E. coli DH5α)
25 µg/mL: MIC (μg/mL) E. cloacae (Enterobacter cloacae; [4]) | MIC (μg/mL) A. hydrophila (Aeromonas hydrophila; [5]) | MIC (μg/mL) C. diversus (Citrobacter diversus; [6]) | MIC (μg/mL) P. mirabilis (Proteus mirabilis; [8])
50 µg/mL: MIC (μg/mL) E. coli BL21 (E. coli BL21; [1]) | MIC (μg/mL) P. aeruginosa (Pseudomonas aeruginosa; [2]) | MIC (μg/mL) K. pneumonia (Klebsiella pneumonia; [3])
12.5 µg/mL: MIC (μg/mL) M. catarrhalis (Moraxella catarrhalis; [7]) | MIC (μg/mL) P. vulgaris (Proteus vulgaris; [9]) | MIC (μg/mL) S. marcescens (Serratia marcescens; [10])

PRT119 (CAPCPNNGRPTLSGTECLCVCQSGTYGENCE; listed as Homo sapiens)
12.5 µg/mL: MIC (μg/mL) P. aeruginosa (Pseudomonas aeruginosa; [2]) | MIC (μg/mL) A. hydrophila (Aeromonas hydrophila; [5]) | MIC (μg/mL) P. vulgaris (Proteus vulgaris; [9]) | MIC (μg/mL) S. marcescens (Serratia marcescens; [10])
25 µg/mL: MIC (μg/mL) E. cloacae (Enterobacter cloacae; [4]) | MIC (μg/mL) C. diversus (Citrobacter diversus; [6]) | MIC (μg/mL) P. mirabilis (Proteus mirabilis; [8])
12.5 mg/L: MIC (E. coli DH5α)
50 µg/mL: MIC (μg/mL) E. coli BL21 (E. coli BL21; [1]) | MIC (μg/mL) K. pneumonia (Klebsiella pneumonia; [3]) | MIC (μg/mL) M. catarrhalis (Moraxella catarrhalis; [7])

PRT1189 (ECVPYPGCVHGSCVEPWQCNCETNWGGLLCD; listed as Homo sapiens)
12.5 mg/L: MIC E. coli BL21 (E. coli BL21; [11]) | MIC E. cloacae (Enterobacter cloacae; [11]) | MIC M. catarrhalis (Moraxella catarrhalis; [11]) | MIC S. marcescens (Serratia marcescens; [11])
50 mg/L: MIC (E. coli DH5α) | MIC K. pneumonia (Klebsiella pneumonia; [11]) | MIC C. diversus (Citrobacter diversus; [11]) | MIC P. vulgaris (Proteus vulgaris; [11])
25 mg/L: MIC P. aeruginosa (Pseudomonas aeruginosa; [11]) | MIC A. hydrophila (Aeromonas hydrophila; [11]) | MIC P. mirabilis (Proteus mirabilis; [11])

PRT1157 (DVSEFSLVPCQNGTDCIKISNDVMCICSPIFTDLLCK; listed as Homo sapiens)
25 mg/L: MIC E. coli BL21 (E. coli BL21; [11]) | MIC K. pneumonia (Klebsiella pneumonia; [11]) | MIC A. hydrophila (Aeromonas hydrophila; [11]) | MIC M. catarrhalis (Moraxella catarrhalis; [11]) | MIC P. vulgaris (Proteus vulgaris; [11])
12.5 mg/L: MIC (E. coli DH5α) | MIC E. cloacae (Enterobacter cloacae; [11]) | MIC P. mirabilis (Proteus mirabilis; [11])
50 mg/L: MIC P. aeruginosa (Pseudomonas aeruginosa; [11]) | MIC C. diversus (Citrobacter diversus; [11]) | MIC S. marcescens (Serratia marcescens; [11])

PRT1141 (EINECSSEPCKNNGTCVDLTNRFFCNCEPEYHGPFCE; listed as Homo sapiens)
12.5 mg/L: MIC E. coli BL21 (E. coli BL21; [11]) | MIC K. pneumonia (Klebsiella pneumonia; [11]) | MIC A. hydrophila (Aeromonas hydrophila; [11]) | MIC P. vulgaris (Proteus vulgaris; [11])
25 mg/L: MIC C. diversus (Citrobacter diversus; [11]) | MIC P. mirabilis (Proteus mirabilis; [11]) | MIC S. marcescens (Serratia marcescens; [11])
50 mg/L: MIC (E. coli DH5α) | MIC P. aeruginosa (Pseudomonas aeruginosa; [11]) | MIC E. cloacae (Enterobacter cloacae; [11]) | MIC M. catarrhalis (Moraxella catarrhalis; [11])

PRT1442 (DKDECAKDNGGCQHECVNTFGSYLCRCRNGYWLHENGHDCK; listed as Homo sapiens)
25 mg/L: MIC against A. hydrophila (Aeromonas hydrophila; Aeromonas hydrophila, 10 h cultivation at 37° C.) | MIC against C. diversus (Citrobacter diversus; Citrobacter diversus, 10 h cultivation at 37° C.) | MIC against P. mirabilis (Proteus mirabilis; Proteus mirabilis, 10 h cultivation at 37° C.) | MIC against S. marcescens (Serratia marcescens; Serratia marcescens, 10 h cultivation at 37° C.)
50 mg/L: MIC against K. pneumonia (Klebsiella pneumonia; Klebsiella pneumonia, 10 h cultivation at 37° C.) | MIC against M. catarrhalis (Moraxella catarrhalis; Moraxella catarrhalis, 10 h cultivation at 37° C.)
12.5 mg/L: MIC (E. coli DH5α) | MIC against E. coli BL21 (E. coli BL21; E. coli BL21, 10 h cultivation at 37° C.) | MIC against P. aeruginosa (Pseudomonas aeruginosa; Pseudomonas aeruginosa, 10 h cultivation at 37° C.) | MIC against E. cloacae (Enterobacter cloacae; Enterobacter cloacae, 10 h cultivation at 37° C.) | MIC against P. vulgaris (Proteus vulgaris; Proteus vulgaris, 10 h cultivation at 37° C.)

PRT1074 (QYRQCSGYCENFGTCQMAADGSRQCRCTAYFEGSRCE; listed as Homo sapiens)
12.5 mg/L: MIC E. coli BL21 (E. coli BL21; [11]) | MIC K. pneumonia (Klebsiella pneumonia; [11]) | MIC E. cloacae (Enterobacter cloacae; [11]) | MIC A. hydrophila (Aeromonas hydrophila; [11]) | MIC C. diversus (Citrobacter diversus; [11]) | MIC M. catarrhalis (Moraxella catarrhalis; [11]) | MIC P. mirabilis (Proteus mirabilis; [11]) | MIC P. vulgaris (Proteus vulgaris; [11]) | MIC S. marcescens (Serratia marcescens; [11])
50 mg/L: MIC (E. coli DH5α) | MIC P. aeruginosa (Pseudomonas aeruginosa; [11])

PRT645 (EINECTVNPDICGAGHCINLPVRYTCICYEGYRFSEQQ; listed as Homo sapiens)
25 mg/L: MIC E. coli BL21 (E. coli BL21; 96-well plate, 37° C., 10 h) | MIC K. pneumonia (Klebsiella pneumonia; 96-well plate, 37° C., 10 h) | MIC A. hydrophila (Aeromonas hydrophila; 96-well plate, 37° C., 10 h)
50 mg/L: MIC (E. coli DH5α) | MIC E. cloacae (Enterobacter cloacae; 96-well plate, 37° C., 10 h) | MIC M. catarrhalis (Moraxella catarrhalis; 96-well plate, 37° C., 10 h) | MIC P. vulgaris (Proteus vulgaris; 96-well plate, 37° C., 10 h)
12.5 mg/L: MIC P. aeruginosa (Pseudomonas aeruginosa; 96-well plate, 37° C., 10 h) | MIC C. diversus (Citrobacter diversus; 96-well plate, 37° C., 10 h) | MIC P. mirabilis (Proteus mirabilis; 96-well plate, 37° C., 10 h) | MIC S. marcescens (Serratia marcescens; 96-well plate, 37° C., 10 h)
